What was measured:
[1] = system: CAPAN human pancreatic cancer cells; assay: Cell viability assay, CAPAN; format: cell-based
Protocol: (§1) CWR22Rv1 prostate cancer cells were treated with N6BAP or the control compound C5 (Ctrl) at 25 μM concentration or vehicle for 24 h. Following trypan blue exclusion, the attached viable vs. de-attached dead cells were counted. […] The bars indicate mean±SD of triplicate wells. In another assay, CWR22Rv1, LNCaP and DU145 cells were treated with N6BAP, the control compound C5 (Ctrl) or vehicle at indicated concentrations. The fraction of alive cells was determined by MTS ([…]) metabolic activity assay (CellTiter 96® AQueous Assay kit). The results are shown in FIGS. 9C, 9D and 9E, respectively.
(§2) The procedure of Example 9 was followed, substituting cells of the following solid tumor cell lines for the cells treated in Example 9: A549 human lung cancer cells, CAPAN human pancreatic cancer cells, T47D human breast cancer cells, […], A2058 human melanoma and COS-7 monkey fibroblast cell lines.

[2] = system: T47D human breast cancer cells; assay: Cell viability assay, T47D; format: cell-based
Protocol: as §1, §2

With `O=P(O)(O)OC[C@H]1O[C@@H](n2cnc3c(NCc4ccccc4)ncnc32)[C@H](O)[C@@H]1O` [N6BAP, N^6-benzyladenosine-5′-monophosphate] the cell viability [1] was “did not affect the viability” and the cell viability [2] was “did not affect the viability”.

Reference: US20160038526A1, “TREATMENT OF PROSTATE CANCER” (THOMAS JEFFERSON UNIVERSITY, priority 2012, published 2016)
